Columns and labels:
Type in all cases: cell-based
K. pneumoniae 6299 [1] = experiment: MIC of ceftazidime alone and in combination with compounds (synergy), broth microdilution
Method: (§1) Compounds of the present invention were assessed against genotyped bacterial strains alone or in combination with the β-lactam ceftazidime (CAZ). […] Briefly, compounds alone according to the invention were prepared in DMSO and spotted (2 μL each) on sterile polystyrene plates (Corning, 3788). […] Log phase bacterial suspensions were adjusted to a final density of 5×10^5 cfu/mL in cation-adjusted Mueller-Hinton broth (Becton-Dickinson) and added to each well (98 μL). Microplates were incubated for 16-20 h at 35° C. in ambient air. The MIC of the compounds was defined as the lowest concentration of said compounds that prevented bacterial growth as read by visual inspection.

P. aeruginosa UFR48 = experiment: as above; settings: Pseudomonas aeruginosa, UFR48, read-out: MIC of CAZ
Method: as §1

E. cloacae P99 [2] = experiment: MIC of compounds alone, broth microdilution; settings: strain P99 (AmpC)
Method: as §1

E. cloacae UFR85 = experiment: MIC of compounds alone, broth microdilution; settings: strain UFR85 (TEM-1, CTX-M-15, derepressed AmpC)
Method: as §1

E. cloacae UFR70 = experiment: MIC of compounds alone, broth microdilution; settings: strain UFR70 (TEM-1, CTX-M-15, CMY-2, OXA-1, Porin loss)
Method: as §1

K. oxytoca UFR21 = experiment: MIC of compounds alone, broth microdilution; settings: strain UFR21 (TEM-1, CTX-M-15, OXA-48)
Method: as §1

K. pneumoniae UFR68 = experiment: MIC of compounds alone, broth microdilution; settings: strain UFR68 (TEM-1, SHV-11, CTX-M-15, KPC-3)
Method: as §1

E. cloacae UFR38 = experiment: MIC of compounds alone, broth microdilution; settings: strain UFR38 (CTX-M-15, NDM-1)
Method: as §1

K. pneumoniae UFR77 = experiment: MIC of compounds alone, broth microdilution; settings: strain UFR77 (CMY-2)
Method: as §1

E. coli UFR74 = experiment: MIC of compounds alone, broth microdilution; settings: strain UFR74 (SHV-1, DHA-1)
Method: as §1

P. aeruginosa CIP107051 [3] = experiment: MIC of compounds alone, broth microdilution; settings: strain CIP107051 (TEM-24)
Method: as §1

E. coli UFR32 = experiment: MIC of compounds alone, broth microdilution; settings: strain UFR32 (TEM-1, VEB-1, OXA-10)
Method: as §1

K. pneumoniae 200047 = experiment: MIC of compounds alone, broth microdilution; settings: strain 200047 (TEM-1, SHV-32, CTX-M-15, OXA-1)
Method: as §1

E. coli UFR18 = experiment: MIC of compounds alone, broth microdilution; settings: strain UFR18 (CTX-M-15, OXA-204)
Method: as §1

E. coli RGN238 = experiment: MIC of compounds alone, broth microdilution; settings: strain RGN238 (OXA-1)
Method: as §1

K. pneumoniae 160143 = experiment: MIC of compounds alone, broth microdilution; settings: strain 160143 (TEM-1, SHV-1, CTX-M-15, KPC-2, OXA-1)
Method: as §1

E. coli UFR61O = experiment: MIC of compounds alone, broth microdilution; settings: strain UFR61O (TEM-1, KPC-2)
Method: as §1

E. coli UFR52 = experiment: MIC of compounds alone, broth microdilution; settings: strain UFR52 (TEM-1, SHV-12, IMP-8)
Method: as §1

C. murliniae 210102 = experiment: MIC of compounds alone, broth microdilution; settings: strain 210102 (VIM-4)
Method: as §1

E. cloacae 260508 = experiment: MIC of compounds alone, broth microdilution; settings: strain 260508 (TEM-1, CTX-M-15)
Method: as §1

K. pneumoniae UFR24 = experiment: MIC of compounds alone, broth microdilution; settings: strain UFR24 (TEM-1, SHV-2, SHV-11, OXA-1, OXA-48, OXA-47)
Method: as §1

E. coli 190317 [4] = experiment: MIC of compounds alone, broth microdilution; settings: strain 190317 (TEM-1, SHV-12, CTX-M-15, OXA-1)
Method: as §1

P. aeruginosa CIP107051 [5] = experiment: MIC of ceftazidime alone and in combination with compounds (synergy), broth microdilution; settings: MIC of ceftazidime with compound fixed at 4 μg/mL; strain CIP107051 (TEM-24)
Method: as §1

K. pneumoniae BAA-1898 [6] = experiment: as above; settings: MIC of ceftazidime with compound fixed at 4 μg/mL; strain BAA-1898 (TEM-1, SHV-11, SHV-12, KPC-2)
Method: as §1

P. aeruginosa CIP105250 [7] = experiment: as above; settings: MIC of ceftazidime with compound fixed at 4 μg/mL; strain CIP105250 (OXA-15)
Method: as §1

E. cloacae P99 [8] = experiment: as above; settings: MIC of ceftazidime with compound fixed at 4 μg/mL; strain P99 (AmpC)
K. pneumoniae BAA-1898 [9] = experiment: microbe, parasite or virus in culture; settings: strain BAA-1898 (TEM-1, SHV-11, SHV-12, KPC-2)
Method: as §1

K. pneumoniae 6299 [10] = experiment: microbe, parasite or virus in culture; settings: strain 6299 (TEM-1, SHV-11, OXA-163)
Method: as §1

E. coli 131119 = experiment: microbe, parasite or virus in culture; settings: strain 131119 (TEM-1, OXA-48)
Method: as §1

P. aeruginosa CIP105250 [11] = experiment: microbe, parasite or virus in culture; settings: strain CIP105250 (OXA-15)
Method: as §1

E. coli 190317 [12] = experiment: MIC of ceftazidime alone and in combination with compounds (synergy), broth microdilution; settings: MIC of ceftazidime with compound fixed at 4 μg/mL; strain 190317 (TEM-1, SHV-12, CTX-M-15, OXA-1)

Structure (SMILES): CC(C)(O/N=C(\C(=O)N[C@@H]1C(=O)N2C(C(=O)[O-])=C(C[n+]3ccccc3)CS[C@H]12)c1csc(N)n1)C(=O)O [CAZ, ceftazidime, reference compound]
- MIC (K. pneumoniae 6299 [1]; Klebsiella pneumoniae, 6299, read-out: MIC of CAZ): 256 µg/mL
- MIC (P. aeruginosa UFR48): 256 µg/mL

Structure (SMILES): NCCON=C1C[C@@H](C(N)=O)N2C[C@@H]1N(OS(=O)(=O)[O-])C2=O.O=C(O)C(F)(F)F.[Na+] [Example 4, sodium and 2,2,2-trifluoroacetate [(2S, 5S)-4-(2-ammoniumethoxyimino)-2-carbamoyl-7-oxo-1,6-diazabicyclo[3.2.1]octan-6-yl] sulfate]
- MIC compounds of the invention alone (E. cloacae P99 [2]): 16 µg/mL
- MIC compounds of the invention alone (E. cloacae UFR85): >32 µg/mL
- MIC compounds of the invention alone (E. cloacae UFR70): >32 µg/mL
- MIC compounds of the invention alone (K. oxytoca UFR21): >32 µg/mL
- MIC compounds of the invention alone (K. pneumoniae UFR68): >32 µg/mL
- MIC compounds of the invention alone (E. cloacae UFR38): 2 µg/mL
- MIC compounds of the invention alone (K. pneumoniae UFR77): >32 µg/mL
- MIC compounds of the invention alone (E. coli UFR74): >32 µg/mL
- MIC compounds of the invention alone (P. aeruginosa CIP107051 [3]): 32 µg/mL
- MIC compounds of the invention alone (E. coli UFR32): 4 µg/mL
- MIC compounds of the invention alone (K. pneumoniae 200047): >32 µg/mL
- MIC compounds of the invention alone (E. coli UFR18): 4 µg/mL
- MIC compounds of the invention alone (E. coli RGN238): >32 µg/mL
- MIC compounds of the invention alone (K. pneumoniae 160143): >32 µg/mL
- MIC compounds of the invention alone (E. coli UFR61O): >32 µg/mL
- MIC compounds of the invention alone (E. coli UFR52): 8 µg/mL
- MIC compounds of the invention alone (C. murliniae 210102): >32 µg/mL
- MIC compounds of the invention alone (E. cloacae 260508): 16 µg/mL
- MIC compounds of the invention alone (K. pneumoniae UFR24): >32 µg/mL
- MIC compounds of the invention alone (E. coli 190317 [4]): 4 µg/mL
- MIC, combination of CAZ and compounds of the invention at 4 μg/mL (P. aeruginosa CIP107051 [5]): 8 µg/mL
- MIC, combination of CAZ and compounds of the invention at 4 μg/mL (K. pneumoniae BAA-1898 [6]): ≤0.125 µg/mL
- MIC, combination of CAZ and compounds of the invention at 4 μg/mL (K. pneumoniae 6299 [1]; MIC of ceftazidime with compound fixed at 4 μg/mL, strain 6299 (TEM-1, SHV-11, OXA-163)): 0.25 µg/mL
- MIC, combination of CAZ and compounds of the invention at 4 μg/mL (P. aeruginosa CIP105250 [7]): 8 µg/mL
- MIC, combination of CAZ and compounds of the invention at 4 μg/mL (E. cloacae P99 [8]): 0.25 µg/mL
- MIC compounds of the invention alone (K. pneumoniae BAA-1898 [9]): >32 µg/mL
- MIC compounds of the invention alone (K. pneumoniae 6299 [10]): >32 µg/mL
- MIC compounds of the invention alone (E. coli 131119): >32 µg/mL
- MIC compounds of the invention alone (P. aeruginosa CIP105250 [11]): >32 µg/mL
- MIC, combination of CAZ and compounds of the invention at 4 μg/mL (E. coli 190317 [12]): <0.25 µg/mL
